Experimental data from article PMC4798913 (ACS chemical biology, 2015).

What was measured:
[1] = tested on: 25 PKMTs and DNMTs, and 3 histone lysine demethylases; experiment: Selectivity panel of methyltransferases and demethylases; assay type: biochemical; details: up to 10 μM (tested at 1 μM and 10 μM)
PRMT3 = PRMT3 (Homo sapiens, UniProt O60678); experiment: PRMT biochemical scintillation proximity assay; details: for IC50: read-out: IC50 PRMT3, substrate at Km, triplicate, Mean ± SD, NI: no inhibition
HEK293 cells [2] = experiment: Cell growth assay; assay type: cell-based; details: 1 μM, 4-day and long-term (10 days) treatment
[3] = tested on: 9 methyllysine or methylarginine reader proteins; experiment: DSF or DSLS binding to reader proteins
[4] = tested on: eight different cell lines; experiment: Cell growth assay; assay type: cell-based; details: 96 h treatment
PRMT7 = target: T1, PRMT7 (Homo sapiens, UniProt Q9NVM4); experiment: PRMT biochemical scintillation proximity assay; details: for inhibition of type III PRMT (PRMT7): concentration not given
T1 sequence (Q9NVM4 1-692): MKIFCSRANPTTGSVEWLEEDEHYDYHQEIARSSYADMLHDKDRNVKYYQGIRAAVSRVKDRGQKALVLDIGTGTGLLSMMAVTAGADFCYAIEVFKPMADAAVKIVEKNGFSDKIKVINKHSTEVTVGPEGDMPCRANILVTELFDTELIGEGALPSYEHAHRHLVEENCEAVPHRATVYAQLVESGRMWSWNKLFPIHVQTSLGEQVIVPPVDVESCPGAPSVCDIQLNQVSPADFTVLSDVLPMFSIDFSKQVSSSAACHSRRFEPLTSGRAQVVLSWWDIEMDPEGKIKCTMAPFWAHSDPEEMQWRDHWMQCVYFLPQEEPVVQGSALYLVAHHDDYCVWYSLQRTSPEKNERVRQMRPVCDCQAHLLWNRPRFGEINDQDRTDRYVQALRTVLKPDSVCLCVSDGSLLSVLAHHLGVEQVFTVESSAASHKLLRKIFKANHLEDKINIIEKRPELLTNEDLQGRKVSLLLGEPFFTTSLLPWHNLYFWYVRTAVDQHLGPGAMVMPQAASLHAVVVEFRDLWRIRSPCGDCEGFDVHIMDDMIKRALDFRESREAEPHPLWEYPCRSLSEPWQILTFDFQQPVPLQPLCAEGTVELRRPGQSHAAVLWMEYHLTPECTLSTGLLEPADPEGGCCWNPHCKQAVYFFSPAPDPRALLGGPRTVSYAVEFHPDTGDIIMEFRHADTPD

PRMT5 = PRMT5 (Homo sapiens, UniProt O14744); experiment: PRMT biochemical scintillation proximity assay; details: for inhibition of type II PRMT (PRMT5): concentration not given
MCF7 cells = experiment: Global arginine methylation Western blot; assay type: cell-based; details: two days (48 h)
HEK293 cells [5] = experiment: Global arginine methylation Western blot; details: two days
PRMT9 = target: T2, PRMT9 (Homo sapiens, UniProt Q6P2P2); experiment: PRMT biochemical scintillation proximity assay; details: for inhibition of type II PRMT (PRMT9): concentration not given
T2 sequence (Q6P2P2 1-845): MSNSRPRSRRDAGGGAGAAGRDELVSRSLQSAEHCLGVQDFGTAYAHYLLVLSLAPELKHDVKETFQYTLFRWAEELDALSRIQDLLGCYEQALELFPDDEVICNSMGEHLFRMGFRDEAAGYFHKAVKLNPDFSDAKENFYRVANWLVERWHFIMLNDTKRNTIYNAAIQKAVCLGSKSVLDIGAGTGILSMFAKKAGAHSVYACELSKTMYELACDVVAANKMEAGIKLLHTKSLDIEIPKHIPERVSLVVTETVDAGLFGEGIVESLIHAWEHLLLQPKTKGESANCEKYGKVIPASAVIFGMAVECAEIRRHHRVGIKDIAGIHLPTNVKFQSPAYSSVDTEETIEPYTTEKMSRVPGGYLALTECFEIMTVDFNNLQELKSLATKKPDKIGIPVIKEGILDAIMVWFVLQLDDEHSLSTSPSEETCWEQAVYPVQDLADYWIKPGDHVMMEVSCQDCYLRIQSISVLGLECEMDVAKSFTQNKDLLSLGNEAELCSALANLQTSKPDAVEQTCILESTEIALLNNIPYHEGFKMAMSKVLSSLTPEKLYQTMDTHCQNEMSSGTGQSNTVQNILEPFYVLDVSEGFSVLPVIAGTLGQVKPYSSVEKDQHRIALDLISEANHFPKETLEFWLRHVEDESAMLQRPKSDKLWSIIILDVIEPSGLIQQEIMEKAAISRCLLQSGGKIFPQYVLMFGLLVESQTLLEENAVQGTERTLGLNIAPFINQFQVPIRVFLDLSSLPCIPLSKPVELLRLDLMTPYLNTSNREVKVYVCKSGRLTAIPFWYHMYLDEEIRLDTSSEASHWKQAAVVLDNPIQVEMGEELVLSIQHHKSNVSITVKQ

PRMT1 [6] = target: T3, PRMT1 (Homo sapiens, UniProt Q99873); experiment: PRMT biochemical scintillation proximity assay; details: read-out: IC50 PRMT1; substrate at Km; triplicate, Mean ± SD; NI: no inhibition
PRMT4 = target: T4, PRMT4 (Homo sapiens, UniProt Q86X55); experiment: PRMT biochemical scintillation proximity assay; details: read-out: IC50 PRMT4; substrate at Km; triplicate, Mean ± SD; NI: no inhibition
T4 sequence (Q86X55 1-608): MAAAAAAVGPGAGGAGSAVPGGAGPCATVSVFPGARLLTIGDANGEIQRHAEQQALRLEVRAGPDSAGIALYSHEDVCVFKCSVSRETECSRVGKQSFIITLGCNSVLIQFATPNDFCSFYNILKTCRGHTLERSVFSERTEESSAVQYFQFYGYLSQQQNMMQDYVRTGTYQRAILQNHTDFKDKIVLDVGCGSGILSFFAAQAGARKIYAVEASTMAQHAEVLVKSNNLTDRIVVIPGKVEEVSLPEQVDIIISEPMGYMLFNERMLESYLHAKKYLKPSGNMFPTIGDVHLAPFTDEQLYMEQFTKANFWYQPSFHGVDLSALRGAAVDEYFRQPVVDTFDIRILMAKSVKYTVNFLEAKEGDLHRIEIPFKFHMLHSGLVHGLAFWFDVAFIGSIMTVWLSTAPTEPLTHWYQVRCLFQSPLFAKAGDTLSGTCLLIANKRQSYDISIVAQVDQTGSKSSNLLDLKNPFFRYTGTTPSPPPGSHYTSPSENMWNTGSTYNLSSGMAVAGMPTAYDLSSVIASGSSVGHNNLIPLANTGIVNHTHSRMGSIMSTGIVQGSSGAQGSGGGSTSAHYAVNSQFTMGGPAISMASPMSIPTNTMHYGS

PRMT1 [7] = target: T3, PRMT1; experiment: Cellular PRMT1 assay; assay type: cell-based; details: MCF7 cells, 48 h
PRMT6 = PRMT6 (Homo sapiens, UniProt Q96LA8); details: 100 μM SAM; PRMT6 alone Tm = 52 °C
Chain of PRMT6 (Q96LA8 whole entry): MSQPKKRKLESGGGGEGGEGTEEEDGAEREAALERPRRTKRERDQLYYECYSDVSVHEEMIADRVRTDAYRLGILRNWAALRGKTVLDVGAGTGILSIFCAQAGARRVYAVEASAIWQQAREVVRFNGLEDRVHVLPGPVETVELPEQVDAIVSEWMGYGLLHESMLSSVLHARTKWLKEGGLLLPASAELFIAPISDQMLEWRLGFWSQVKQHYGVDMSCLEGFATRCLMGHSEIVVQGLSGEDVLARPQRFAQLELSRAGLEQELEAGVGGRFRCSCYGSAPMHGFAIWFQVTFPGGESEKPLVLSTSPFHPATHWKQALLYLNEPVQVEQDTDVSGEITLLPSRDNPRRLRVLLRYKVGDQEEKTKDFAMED

Chain of PRMT3 (O60678 whole entry): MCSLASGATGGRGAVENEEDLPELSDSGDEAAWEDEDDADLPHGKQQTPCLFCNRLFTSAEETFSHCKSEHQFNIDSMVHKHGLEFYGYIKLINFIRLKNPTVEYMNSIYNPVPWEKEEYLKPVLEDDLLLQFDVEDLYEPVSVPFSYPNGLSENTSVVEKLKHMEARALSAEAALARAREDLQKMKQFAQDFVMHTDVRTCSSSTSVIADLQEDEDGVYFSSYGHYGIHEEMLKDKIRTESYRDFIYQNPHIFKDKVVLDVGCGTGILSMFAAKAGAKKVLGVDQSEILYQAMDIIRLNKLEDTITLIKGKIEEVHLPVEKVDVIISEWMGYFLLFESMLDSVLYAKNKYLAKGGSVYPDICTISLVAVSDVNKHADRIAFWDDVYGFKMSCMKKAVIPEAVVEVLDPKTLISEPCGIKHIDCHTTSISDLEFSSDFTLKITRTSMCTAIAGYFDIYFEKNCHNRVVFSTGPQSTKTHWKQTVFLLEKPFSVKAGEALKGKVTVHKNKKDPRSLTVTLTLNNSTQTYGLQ
T3 sequence (Q99873 whole entry): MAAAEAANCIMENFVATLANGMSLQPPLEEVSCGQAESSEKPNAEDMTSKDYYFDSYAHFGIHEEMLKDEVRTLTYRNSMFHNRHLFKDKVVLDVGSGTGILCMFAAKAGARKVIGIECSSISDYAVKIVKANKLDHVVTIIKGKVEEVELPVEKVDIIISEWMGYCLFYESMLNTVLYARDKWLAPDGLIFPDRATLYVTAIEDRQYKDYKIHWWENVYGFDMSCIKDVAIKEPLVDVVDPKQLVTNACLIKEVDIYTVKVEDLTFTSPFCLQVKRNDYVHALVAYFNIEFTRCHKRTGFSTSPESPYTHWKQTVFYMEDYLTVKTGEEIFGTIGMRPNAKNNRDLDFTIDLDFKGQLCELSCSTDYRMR
Chain of PRMT5 (O14744 whole entry): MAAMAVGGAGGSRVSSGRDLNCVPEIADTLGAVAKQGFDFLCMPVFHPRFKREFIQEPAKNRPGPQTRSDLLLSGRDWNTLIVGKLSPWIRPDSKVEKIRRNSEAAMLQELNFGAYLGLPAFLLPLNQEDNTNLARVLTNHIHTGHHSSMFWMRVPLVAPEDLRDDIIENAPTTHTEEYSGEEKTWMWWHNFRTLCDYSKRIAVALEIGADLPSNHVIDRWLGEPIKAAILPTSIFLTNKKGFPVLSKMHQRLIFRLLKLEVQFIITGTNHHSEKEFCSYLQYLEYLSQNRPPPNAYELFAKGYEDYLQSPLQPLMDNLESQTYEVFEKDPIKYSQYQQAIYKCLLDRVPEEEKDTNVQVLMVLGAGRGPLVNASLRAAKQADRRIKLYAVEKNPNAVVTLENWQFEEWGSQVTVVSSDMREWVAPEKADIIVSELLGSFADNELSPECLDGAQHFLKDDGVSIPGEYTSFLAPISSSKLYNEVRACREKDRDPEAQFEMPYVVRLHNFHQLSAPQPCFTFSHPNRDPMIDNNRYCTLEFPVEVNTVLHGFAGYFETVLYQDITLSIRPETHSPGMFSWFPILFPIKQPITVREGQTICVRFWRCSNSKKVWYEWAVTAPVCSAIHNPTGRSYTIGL
Chain of PRMT5 (Q9BQA1 whole entry partner): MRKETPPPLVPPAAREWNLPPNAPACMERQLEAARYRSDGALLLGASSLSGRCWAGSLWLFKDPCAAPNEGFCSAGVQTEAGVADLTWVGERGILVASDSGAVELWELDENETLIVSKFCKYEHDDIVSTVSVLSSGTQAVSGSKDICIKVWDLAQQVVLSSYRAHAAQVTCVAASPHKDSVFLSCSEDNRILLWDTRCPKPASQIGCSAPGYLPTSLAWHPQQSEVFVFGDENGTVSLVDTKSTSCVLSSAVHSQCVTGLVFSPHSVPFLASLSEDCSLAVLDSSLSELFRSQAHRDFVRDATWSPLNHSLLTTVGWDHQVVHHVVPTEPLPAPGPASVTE

| SMILES | IC50 (PRMT1 [6]) [µM] | IC50 (PRMT3) [µM] | IC50 (PRMT4) [µM] | effect on cellular levels of H4R3me2a (PRMT1 [7]) | global levels of arginine asymmetric dimethylation (Rme2a) (MCF7 cells) | global levels of arginine monomethylation (Rme1) (MCF7 cells) | global levels of arginine symmetric dimethylation (Rme2s) (MCF7 cells) | also measured |
| --- | --- | --- | --- | --- | --- | --- | --- | --- |
| CC(C)Oc1ccc(-c2c[nH]cc2CN(C)CCN)cc1 [MS023] |  |  |  |  | significant decrease | increase | increase | inhibition of 25 PKMTs and DNMTs and 3 histone lysine demethylases [1]: did not inhibit; pattern of inhibition (MOA) for PRMT3 (PRMT3; IC50 at different SAM and peptide concentrations): noncompetitive with the peptide substrate but uncompetitive with the cofactor SAM; effect on cell growth (HEK293 cells [2]): greatly affecting cell growth; binding to 9 methyllysine or methylarginine reader proteins [3]: did not show binding; effect on cell growth ([4]; concentrations up to 1 μM, all lines except HEK293): did not significantly impact cell growth; effect on cell growth ([4]; higher concentrations (e.g., 10 μM, 50 μM)): decreased cell growth in most of tested cell lines; inhibition of PRMT7 (type III) (PRMT7; concentrations up to 10 μM): did not inhibit; inhibition of PRMT5 (type II) (PRMT5; concentrations up to 10 μM): did not inhibit; global levels of arginine asymmetric dimethylation (Rme2a) (HEK293 cells [5]): significant decrease; global levels of arginine monomethylation (Rme1) (HEK293 cells [5]): increase; global levels of arginine symmetric dimethylation (Rme2s) (HEK293 cells [5]): increase; inhibition of PRMT9 (type II) (PRMT9; concentrations up to 10 μM): did not inhibit |
| CN(CCN)Cc1c[nH]cc1-c1cccc(C(F)(F)F)c1 [Compound 2] |  |  |  |  |  |  |  | inhibition of type III PRMT (PRMT7) (PRMT7): did not inhibit; inhibition of type II PRMT (PRMT5) (PRMT5): did not inhibit; inhibition of type II PRMT (PRMT9) (PRMT9): did not inhibit |
| C[S+](CC[C@H](N)C(=O)O)C[C@H]1O[C@@H](n2cnc3c(N)ncnc32)[C@H](O)[C@@H]1O (stereo partly drawn) [SAM, S-5′-adenosyl-L-methionine] |  |  |  |  |  |  |  | ΔTm PRMT6 (DSF) (PRMT6): 1.6 °C |
| CN(CCN)Cc1n[nH]nc1-c1cccc(C(F)(F)F)c1 [Compound 1] |  |  |  |  |  |  |  | inhibition of type III PRMT (PRMT7) (PRMT7): did not inhibit; inhibition of type II PRMT (PRMT5) (PRMT5): did not inhibit; inhibition of type II PRMT (PRMT9) (PRMT9): did not inhibit |

Second part, led by results:

| IC50 (PRMT1 [6]) [µM] | IC50 (PRMT3) [µM] | IC50 (PRMT4) [µM] | effect on cellular levels of H4R3me2a (PRMT1 [7]) | SMILES | global levels of arginine asymmetric dimethylation (Rme2a) (MCF7 cells) | global levels of arginine monomethylation (Rme1) (MCF7 cells) | global levels of arginine symmetric dimethylation (Rme2s) (MCF7 cells) | also measured |
| --- | --- | --- | --- | --- | --- | --- | --- | --- |
| > 10 | > 10 | > 10 | did not decrease | CC(C)Oc1ccc(-c2c[nH]cc2CN(C)CCO)cc1 [MS094] | did not change | did not change | did not change |  |
| > 10 | > 10 | > 10 | did not decrease | CC(C)Oc1ccc(-c2c[nH]cc2C(=O)N(C)CCN)cc1 [Compound 6] | did not change | did not change | did not change |  |
| > 10 | > 10 | > 10 | did not decrease | CC(C)Oc1ccc(-c2c[nH]cc2CN(C)CC(N)=O)cc1 [Compound 5] | did not change | did not change | did not change |  |
